In patent publication US20240158359A1, “HYDROLYSIS-RESISTANT ESTERS FOR DRUG AND IMAGING AGENT DELIVERY” (The Board of Trustees of the University of lllinois, priority 2022, published 2024):

How the values were obtained:
[1] = target: NTR (Escherichia coli, UniProt P38489)
Procedure: Dose-dependence Activation of BL660-NTR (FIG. 4a) by NTR: The response of BL660-NTR (5 μM) against different concentrations of NTR was measured in a 96-well culture plate and was monitored using the IVIS imaging system. BL660-NTR was incubated with either 0.01 U or 0.1 U NTR at 37° C. for 15 min before the wells were treated with ATP-MgSO4 and luciferase to initiation bioluminescence production. Light was collected immediately after mixing, and the signal enhancement was determined relative to control wells not treated with enzyme. The total volume of each well was 100 μL (PBS (pH 7.4) with 0.5% DMSO). All data is reported as the mean±standard deviation (n=5).

[2] = system: A549 cells; experiment: MTT cytotoxicity assay of BL660-NTR; format: cell-based; details: 0 to 20 μM, up to 3 hours
Procedure: Prior to testing BL660-NTR in vivo, we assessed potential cytotoxicity by treating A549 cells with BL660-NTR across a concentration range of 0 to 20 μM for up to 3 hours.
MTT Cytotoxicity Assay. 24-well plates were seeded with 180,000 cells per well (500 μL of 360,000 cells/mL) and incubated at 37° C. with 5% CO2 for 24 h (˜70% confluent). Media was removed and fresh RPMI 1640 media with 10% FBS containing 0, 5, 10 or 20 μM BL660-NTR (1% DMSO final v/v) was added. The media was removed after 1 and 3 h and replaced with 500 μL of a 20:1 mixture of FBS-free RPMI 1640 and (3-(4,5-dimethylthiazol-2-yl)-2,5-diphenyl-tetrazolium bromide (MTT, 5 mg/mL stock in PBS). The cells were incubated for 2 h under the same conditions and then the medium was removed and replaced with DMSO (500 μL/well). The absorbance of each well was recorded after a 1:5 dilution in DMSO at 555 nm on a microplate reader. Viability was calculated by the absorbance relative to the vehicle control. Values are reported as the mean±standard deviation (n=3).

[3] = system: A549 cells; experiment: Detection of NTR activity in A549 lung cancer cells cultured in hypoxia or normoxia, lysate BL imaging; format: cell-based
Procedure: Next, we performed a cell imaging study to measure hypoxia within a living system. Specifically, A549 cells (not expressing Luc) were cultured in an atmosphere consisting of 1% or 20% oxygen for 2 days to mimic hypoxic conditions (1%) or normoxic (20%), respectively. Because aryl nitro reduction mediated by mammalian NTRs can be inhibited by molecular oxygen, we expect there to be greater probe activation under oxygen-deficient conditions. After incubating with BL660-NTR for 60 minutes, the cells were washed with fresh PBS, detached, pelleted, and lysed via sonication. The lysates were then transferred to 24-well plates, treated with luciferase and imaged immediately using the IVIS imaging system. […] This represents a significant 4.5-fold difference in BL intensity.
A549 cells were seeded in T75 culture flasks and incubated in 1% or 20% oxygen atmosphere for 48 hours. A solution of BL660-NTR in DMSO (2 mM, 50 μL) was quickly added into each flask such that the final concentration of the probe is 10 μM and 0.5% DMSO. The cells were incubated with the probe for 60 minutes (under the respective culture conditions), washed with fresh PBS, and detached from the culture flasks. The cells were then transferred to a 15 mL centrifuge tube and pelleted at 1000 rpm for 5 min at room temp. The cells (4.25×10^6 cells/mL) were then resuspended in PBS along with 10% protease inhibitor solution (1 protease inhibitor mini tablet per 10 mL PBS, Pierce, Thermo Fisher Scientific) and sonicated on ice for 2.5 minutes (pulse 01, 01, 40%). The cell debris was removed via centrifugation at 4° C. The cell lysates were further diluted 2.5-fold by PBS and 475 μL were transferred into 24-well plates (n=4 for each condition), treated with luciferase (25 μL, 0.25 mg/mL), and imaged immediately using the IVIS imaging system. Bioluminescence light was collected in open mode (no filters were applied). ROIs were drawn around each well. The signal intensity was quantified using the Living Image Analysis Software.

[4] = system: A549-Luc2 tumors; experiment: BL imaging of tumor hypoxia in a lung cancer model; format: in vivo, NU/J mice; details: for BL signal in the tumors (in words): 5 to 75 min after retroorbital injection; for BL signal in the tumors (in words) / total luminescent count in tumors after 15 mins: 2.2 μmol/kg; for total luminescent count in tumors after 15 mins: NU/J mice with A549-Luc2 tumors
Procedure: NU/J mice (male, ˜5-weeks old) were inoculated with A549-Luc2 lung cancer cells (5×10^6) in both flanks. Testing of BL660-NTR commenced after tumors had grown to a volume of ˜300 mm^3 (˜4 weeks). First, we performed imaging using BL660-NTR, which was administered systemically via retroorbital injection (ROI) (FIG. 5a (upper horizontal row of points) and FIG. 14). ROIs were drawn around each tumor and the luminescent count was summed for each animal. […] The BL intensity appears to decrease slightly after 15 mins and levels off until the end of the experiment (75 mins) (FIG. 5c).
Next, to distinguish between NTR activation and off-target ester hydrolysis, we employed Compound (4) as a control reagent, which only differs in that the nitro trigger is absent (FIG. 1a). After approximately 20 hours, the same animals were treated with Compound (4) and imaged (FIG. 5b and FIG. 15). This delay was to ensure the probe had fully cleared from the first experiment. […] The total luminescent count after 15 mins for Compound 4 was only 4.0±0.7×10^3; whereas the corresponding readout was 16.6±2.5×10^3 for BL660-NTR. This represents a […] difference, indicating successful detection of tumor hypoxia (FIG. 5d).
NU/J mice bearing A549-Luc2 tumors were anesthetized using isoflurane (1-3% for maintenance; up to 5% for induction) in oxygen from a precision vaporizer. After testing to ensure animals are fully under anesthesia, an initial background scan is recorded. BL660-NTR or compound 4 formulated in 3:7 v/v DMSO:PBS. The solution was filtered through a […] sterile filter immediately prior to use. The typical injection volume is ˜100 μM at a dose of 2.2 μmol/kg. The solution was then administered via retroorbital injection. Images were captured using the IVIS® imaging system at 5, 15, 30, 45, 60, and 75 minutes after injection. Bioluminescence light was collected in open mode (no filters were applied). Regions of interest (“ROIs”) were drawn around each tumor and summed for each animal. The signal intensity was quantified using the Living Image Analysis Software and is represented in FIGS. 5c and 5d.
Generation of a Subcutaneous Lung Cancer Model: A549 cells were treated with vehicle (media only) or 50 μM DETA NONOate in media for 10 days. Cells were washed with PBS, resuspended in serum-free media (Hams F-12K), and mixed 1:1 with Geltrex (v/v) (to a final concentration of 5×10^7 cells/mL). Tumors were generated by subcutaneously injecting 100 μL of these cell solutions into the flanks of 4-week-old Nu/J mice (The Jackson Laboratory stock #: 002019).
BL660-NTR was dissolved in DMSO and diluted with PBS (3:7 v/v DMSO:PBS). The solution was filtered through a […] sterile filter immediately prior to use. The typical injection volume is ˜100 μM at a dose of 2.2 μmol/kg.
Compound 4 was dissolved in DMSO and diluted with PBS (3:7 v/v DMSO:PBS). The solution was filtered through a […] sterile filter immediately prior to use. The typical injection volume is ˜100 μM at a dose of 2.2 μmol/kg.

[5] = 5 μM, 50 equiv analyte, 37° C., 30 min
Procedure: For instance, transition metals like Cu(II) can facilitate ester hydrolysis via Lewis acid-mediated ester activation. Additionally, various reactive oxygen and nitrogen that can interact with the ester bond were also tested. Lastly, we also examined reactive sulfur species, which are known to reduce aryl nitro groups.
Analyte Selectivity Assay for BL660-NTR. […] Light was collected within 15 min after mixing, and the signal enhancement was determined relative to control wells not treated with analyte. The total volume of each well was 100 μL [PBS (pH 7.4) with 0.5% DMSO]. Metal ion solutions were prepared by dissolving in MilliQ H2O before use. Superoxide anion was added as a solution of potassium superoxide in DMSO. Hydroxide radical was generated according to the previously reported literature. Similarly, peroxynitrite was prepared according to the reported literature. NO was generated in situ from a solution of DEA-NONOate in degassed PBS buffer. Glutathione reduced form was maintained at the final concentration of 5 mM in the reaction mixture. H2S was generated just before use according to the reported literature. NTR was used one unit per well. All other analytes were prepared by dilution or dissolution from commercially available sources.

[6] = Hydrolytic stability of BL660 esters in PBS, luciferase BL readout; format: physicochemical; details: PBS pH 7.4, 37° C.; versus Compound (1)
Procedure: We began our analysis of stability by incubating BL660 esters of Compound (1), Compound (2), and Compound (3) at 37° C. in PBS (phosphate-buffered saline) (pH 7.4). After 1, 6, and 12 hours, luciferase was added (10mU, 37° C., pH 7.4) to initiate BL production. The rate of hydrolysis, reported as total luminescence counts per hour, indicates hydrolysis in descending order is: Compound (1) (13.9±1.4×10^3); Compound (2) (3.3±0.6×10^3), and Compound (3) (1.0±0.1×10^3) (FIG. 1b, wherein the esters are indicated on the horizontal axis) and FIG. 8 (wherein the respective timeline plots are identified beneath the horizontal axis as (1), (2), etc.). Luminescent counts were recorded using an IVIS In Vivo Imaging System. […] Without wishing to be bound by any theory, we speculate hydrolysis of (3) may involve an SN1 mechanism, thus favoring formation of a double benzylic carbocation.

[7] = system: porcine liver esterase; experiment: Esterase reactivity: treatment with porcine liver esterase, BL readout; format: in vitro ADME; details: porcine liver esterase 0.1 units/mL; versus Compound (1)
Text: The enzymatic rates, reported as total luminescence counts per minute, in descending order are: Compound (1) (31.0±6.8×10^2), (3) (9.5±1.2×10^2), and (2) (0.6±0.1×10^2) (FIG. 1c and FIG. 9). The greater stability imparted by the aromatic ring is not surprising since esterase reactivity can be readily attenuated with bulkier substituents.

[8] = Hydrolytic stability of Compound (4) in Britton-Robinson buffer at pH 5, 7.4 and 9; format: physicochemical; details: 10 μM
Procedure: (§1) Following this set of experiments, we subjected Compound (4) to acidic (pH 5) and alkaline (pH 9) conditions to account for the various pH gradients in the body. For these experiments we used the Britton-Robinson buffer system. […] These include lipase, human carboxyesterase-2, monoacylglycerol lipase, fatty acid amide hydrolase, and aldehyde dehydrogenase 1A1.
Compound (4) (10 μM final concentration with 1% DMSO) was first incubated in Britton-Robinson buffer (pH 5, 7.4 and 9) at 37° C. for 2, 3 and 4 hrs. Then the pH's were adjusted to 7.4. Luminescence was measured by blocking excitation light and measuring emissions with 660 nm gating. Total volume of the reaction mixture was maintained at 100 μL. To the 50 μL of this reaction mixture was ATP-MgSO4 (45 μL, prepared by mixing 17.78 mM ATP-Mg and 35.56 mM MgSO4 in 1:1 ratio in PBS buffer) and the reaction was initiated with Luciferase (5 μL, 0.25 mg/mL in PBS containing 10% glycerol).

[9] = system: lipase, human carboxyesterase-2, monoacylglycerol lipase, fatty acid amide hydrolase, and aldehyde dehydrogenase 1A1; experiment: Enzyme selectivity assay for Compound 4 against panel of ester-cleaving enzymes; format: in vitro ADME; details: 5 μM, 10 mU of each enzyme (ALDH 1A1 100 nM), 37° C.
Procedure: as §1
Enzyme Selectivity Assay for Compound 4. […] Compound 4 was incubated with 10 mU of each enzyme at 37° C. for 30 min before ATP-MgSO4 and luciferase were added to initiate bioluminescence production. […] ALDH 1A1 was used at a final concentration of 100 nM.

[10] = system: 4T1-Luc cells; experiment: Ester stability in live 4T1-Luc cells, BL imaging; format: cell-based, murine; details: 10 μM, 30 mins at 37° C.
Procedure: First, we prepared BL660-Me, a methyl ester derivative of BL660 as shown in FIG. 2a for comparison to the benzyl ester (4) of FIG. 1a. Next, we cultured 4T1 murine breast cancer cells, stably expressing the luciferase enzyme (4T1-Luc). The cells were then treated with a DMSO (dimethyl sulfoxide) vehicle control, BL660-Me or Compound (4) (FIG. 3a and FIG. 10a, b, c respectively?). Imaging was performed using the IVIS In Vivo Imaging System.
4T1-Luc cell was cultured in phenol red-free RPMI 1640 (ATCC) with 10% fetal bovine serum (FBS, Sigma Aldrich), and 1% penicillin/streptomycin (Corning).
Evaluation of BL660-Me and 4 in 4T1-Luc Cells. 4T1-Luc cells (180K) were seeded into 24-well plates and incubated for 24 hours. The cells were ˜85% confluent. The media was removed and replaced with serum-free RPMI 1640. An initial background scan was recorded on an IVIS imaging system in open mode where no filters were applied. Cells were then treated with DMSO (2.5 μL, 0.5%), BL660-Me, or compound 4 in DMSO (10 μM final concentration). After 30 minutes incubation at 37° C., bioluminescence was collected. ROIs were drawn around each well. The total luminescence count for each well for a given condition was averaged. The signal intensity was quantified using the Living Image Analysis Software.

[11] = 15 mins after retroorbital injection

Sequence of NTR (P38489 whole entry): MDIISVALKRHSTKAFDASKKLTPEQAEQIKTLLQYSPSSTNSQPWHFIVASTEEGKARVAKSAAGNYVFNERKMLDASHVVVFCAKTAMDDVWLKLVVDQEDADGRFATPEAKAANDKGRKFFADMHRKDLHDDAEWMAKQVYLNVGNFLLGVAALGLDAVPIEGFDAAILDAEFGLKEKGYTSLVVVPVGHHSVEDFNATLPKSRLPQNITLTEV

Row | SMILES | total luminescence signal, NTR absent ([1]; BL660-NTR 5 μM and luciferase without NTR) | total luminescence count, probe, NTR and luciferase all present ([1]; BL660-NTR 5 μM, NTR 0.1 units, luciferase 0.0125 mg/mL) | cell viability [2] | difference in BL intensity, hypoxic versus normoxic ([3]; 1% versus 20% oxygen) [fold] | total luminescent counts, hypoxic lysates ([3]; A549 cells in 1% oxygen for 2 days, 10 μM probe 60 minutes) | total luminescent counts, normoxic lysates ([3]; A549 cells in 20% oxygen for 2 days, 10 μM probe 60 minutes) | BL signal in the tumors (in words) [4] | difference in total luminescent count, BL660-NTR versus Compound 4 [4, 11] [fold] | total luminescent count in tumors after 15 mins [4, 11] | activation by analytes compared to the NTR positive control [5] [%] | resistance to hydrolysis relative to the parent benzyl ester [6] | esterase stability relative to the parent benzyl ester [7] | rate of hydrolysis at pH 5.0 ([8]; Britton-Robinson buffer pH 5.0, 37° C., 2, 3 and 4 hrs) | rate of hydrolysis at pH 7.4 ([8]; Britton-Robinson buffer pH 7.4, 37° C., 2, 3 and 4 hrs) | rate of hydrolysis at pH 9.0 ([8]; Britton-Robinson buffer pH 9.0, 37° C., 2, 3 and 4 hrs) | activation on exposure to ester-cleaving enzymes [9] | total luminescence count [10]
1 | CCN(CC)c1ccc(C=CC=CC2=NC(C(=O)OC(c3ccc([N+](=O)[O-])cc3)C(C)C)CS2)cc1 (stereo not shown) [BL660-NTR] | significantly attenuated | notable increase in the total luminescence count | No loss of cell viability | 4.5 | 5.0±0.1×10^5 total luminescent counts | 1.1±0.03×10^5 total luminescent counts | strong BL signals were apparent in all tumors | 5.2 | 16.6±2.5×10^3 total luminescent count | ≤ 10 | – | – | – | – | – | – | –
2 | CCN(CC)c1ccc(C=CC=CC2=NC(C(=O)OC(c3ccccc3)C(C)C)CS2)cc1 (stereo not shown) [Compound (4)] | – | – | – | – | – | – | barely discernable from background | – | 4.0±0.7×10^3 total luminescent count | – | about 140 fold | about 68 fold | 25.7±9.6×10^2 total luminescence counts per hour | 8.6±1.3×10^2 total luminescence counts per hour | 52.8±20.7×10^2 total luminescence counts per hour | minimal activation | 3.1±1.2×10^3 total luminescence count
